Experimental data published in the NIST ThermoML archive (doi:10.1021/je200434a).
± gives the expanded uncertainty stated by the source.

Settings: 101.33 kPa, Liquid; for viscosity: Concentric cylinders viscometry; for mass density: Vibrating tube method

CCCCCCOS(=O)(=O)[O-].CC[n+]1ccn(C)c1 [3-ethyl-1-methyl-1H-imidazolium hexyl sulfate]
Settings | mass density [kg/m3] | viscosity [mPa·s]
283.15 K | – | 875 ± 48
288.15 K | – | 604 ± 31
293.15 K | 1133.8 ± 1.1 | 428.3 ± 21
294.15 K | 1133.12 ± 1.1 | –
295.15 K | 1132.45 ± 1.1 | –
296.15 K | 1131.77 ± 1.1 | –
297.15 K | 1131.09 ± 1.1 | –
298.15 K | 1130.42 ± 1.1 | 311.4 ± 15
299.15 K | 1129.74 ± 1.1 | –
300.15 K | 1129.07 ± 1.1 | –
301.15 K | 1128.4 ± 1.1 | –
302.15 K | 1127.72 ± 1.1 | –
303.15 K | 1127.05 ± 1.1 | 231.5 ± 10
304.15 K | 1126.38 ± 1.1 | –
305.15 K | 1125.71 ± 1.1 | –
306.15 K | 1125.04 ± 1.1 | –
307.15 K | 1124.37 ± 1.1 | –
308.15 K | 1123.7 ± 1.1 | 175.7 ± 7.8
309.15 K | 1123.03 ± 1.1 | –
310.15 K | 1122.36 ± 1.1 | –
311.15 K | 1121.7 ± 1.1 | –
312.15 K | 1121.03 ± 1.1 | –
313.15 K | 1120.37 ± 1.1 | 135.9 ± 5.9
314.15 K | 1119.7 ± 1.1 | –
315.15 K | 1119.04 ± 1.1 | –
316.15 K | 1118.38 ± 1.1 | –
317.15 K | 1117.72 ± 1.1 | –
318.15 K | 1117.06 ± 1.1 | 106.9 ± 4.5
319.15 K | 1116.4 ± 1.1 | –
320.15 K | 1115.74 ± 1.1 | –
321.15 K | 1115.08 ± 1.1 | –
322.15 K | 1114.42 ± 1.1 | –
323.15 K | 1113.77 ± 1.1 | 85.4 ± 3.6
324.15 K | 1113.12 ± 1.1 | –
325.15 K | 1112.46 ± 1.1 | –
326.15 K | 1111.81 ± 1.1 | –
327.15 K | 1111.16 ± 1.1 | –
328.15 K | 1110.51 ± 1.1 | 69.2 ± 2.9
329.15 K | 1109.86 ± 1.1 | –
330.15 K | 1109.21 ± 1.1 | –
331.15 K | 1108.56 ± 1.1 | –
332.15 K | 1107.92 ± 1.1 | –
333.15 K | 1107.27 ± 1.1 | 56.8 ± 2.3
334.15 K | 1106.63 ± 1.1 | –
335.15 K | 1105.98 ± 1.1 | –
336.15 K | 1105.33 ± 1.1 | –
337.15 K | 1104.69 ± 1.1 | –
338.15 K | 1104.05 ± 1.1 | 47.2 ± 2
339.15 K | 1103.41 ± 1.1 | –
340.15 K | 1102.77 ± 1.1 | –
341.15 K | 1102.13 ± 1.1 | –
342.15 K | 1101.49 ± 1.1 | –
343.15 K | 1100.85 ± 1.1 | 39.6 ± 1.6
344.15 K | 1100.21 ± 1.1 | –
345.15 K | 1099.57 ± 1.1 | –
346.15 K | 1098.93 ± 1.1 | –
347.15 K | 1098.3 ± 1 | –
348.15 K | 1097.66 ± 1 | 33.6 ± 1.4
349.15 K | 1097.02 ± 1 | –
350.15 K | 1096.39 ± 1 | –
351.15 K | 1095.75 ± 1 | –
352.15 K | 1095.12 ± 1 | –
353.15 K | 1094.49 ± 1 | 28.8 ± 1.2
354.15 K | 1093.85 ± 1 | –
355.15 K | 1093.22 ± 1 | –
356.15 K | 1092.59 ± 1 | –
357.15 K | 1091.95 ± 1 | –
358.15 K | 1091.32 ± 1 | 24.8 ± 1
359.15 K | 1090.69 ± 1 | –
360.15 K | 1090.06 ± 1 | –
361.15 K | 1089.43 ± 1 | –
362.15 K | 1088.8 ± 1 | –
363.15 K | 1088.17 ± 1 | 21.6 ± 0.9
368.15 K | – | 18.9 ± 0.8
373.15 K | – | 16.7 ± 0.7
